Read-outs that look alike come from different tables or passages of the source. Blank lines part the entries; values can stand above or below the compound they belong to. Where a SMILES comes first, the peptide text is derived from it. Where no end group is shown, it is not given here. [ ]: non-standard residue; d: D form. pY = N[C@@H](Cc1ccc(OP(=O)(O)O)cc1)C(=O)O
Experiments:
Caco-2 cell monolayers [1] = settings: cited from earlier work
Protocol: Basolateral solutions were sampled every 15 min for 60 min and analyzed by LC–TOF/MS. […] Therefo ...

[2] = Transport of Cblin pentapeptides across Caco-2 cell monolayers (apparent permeability); format: in vitro ADME; settings: human; Caco-2 (C2BBe1) monolayers, apical to basolateral, apical HBSS pH 6.0 / basolateral HBSS pH 7.4, 1 mM peptide, 0.5% DMSO, 60 min, 37 °C, TEER >300 Ω·cm2, LC–TOF/MS, means ± SEM (n = 4–6)
Protocol: (§1) Cell culture and transport experiment were performed as described[24],[45]. Caco-2 cells were cultured using BD BioCoat Intestinal Epithelium Differentiation Environment kits (BD Bioscience, Franklin Lakes, NJ, USA). Caco-2 cells grown in 0.9 cm^2 Falcon cell culture inserts (polyethylene terephthalate membranes; pore size, 1.0 μm; Becton Dickinson and Co.) with a type I collagen-coated membrane (Cellmatrix type IA Collagen Gel Culturing Kit; Nitta Gelatin Inc., Osaka, Japan) were gently rinsed twice with Hanks balanced salt solution (HBSS; 137 mM NaCl, 5 mM KCl, 5.5 mM D-glucose, 4 mM NaHCO3, 0.75 mM NaHPO4·12H2O, 0.4 mM KH2PO4, 0.8 mM MgSO4·7H2O, and 1.26 mM CaCl2·2H2O, pH 6.0 adjusted with 10 mM 2-(N-morpholino)-ethanesulfonic acid). A portion (1.5 mL) of HBSS buffer (pH 6.0) was added to the apical side, and HBSS buffer (pH 7.4 adjusted with 10 mM N-2-hydroxyethylpiperazine-N′-2-ethanesulfonic acid) was added to the basolateral side. After equilibration for 15 min at 37 °C, the apical buffer was replaced with fresh HBSS (pH 6.0) containing 1 mM peptide and 0.5% DMSO. Portions (60 μL) of solutions were drawn from the apical or basolateral sides at 15, 30, 45, and 60 min to determine amounts of transported peptides. Monolayer integrity was evaluated by measuring TEER using a Millicell® ERS-2 Voltohmmeter (Merck KGaA, Darmstadt, Germany), and monolayers with a TEER of >300 Ω · cm^2 were included in the experiments. The apparent permeability coefficient (Papp, cm/s) was calculated as1 Pappcm/s=V/AC0×dC/dt where dC/dt is the change in concentration on the basolateral side over time (mM/s), V is the volume of solution in the basolateral compartment (1.5 mL), A is the surface area of the membrane (0.9 cm^2), and C0 is the initial concentration on the apical side (mM).
(§2) We investigated the involvement of PEPT1 in peptide transport by competition studies using 10 mM Gly-Sar, a PEPT1 substrate. We also investigated peptide transport over paracellular tight junctions by incubating monolayers with the tight junction opener, cytochalasin D (0.5 μg/mL) for 30 min[47] before evaluating transport.
(§3) Oligopeptides were separated at 40 °C using a linear gradient of 0.1% formic acid (FA) in MS grade water (solvent A) and 0.1% FA in acetonitrile (ACN) (solvent B) for 20 min at a flow rate of 0.2 mL/min, and an Agilent 1200 series HPLC system (Agilent Technologies Inc., Santa Clara, CA, USA) equipped with a Cosmosil 5C18-MS-II column (Φ 2.0 mm × 150 mm, Nacalai Tesque Inc., Kyoto, Japan). The MS conditions comprised: drying gas, N2; flow rate, 8.0 L/min; drying gas temperature, 200 °C; drying gas pressure, 1.6 bar; HV capillary voltage, −4500 V; capillary exit, 70.0 V; skimmer 1, 50.0 V; hexapole 1, 23.0 V; hexapole RF, 100.0 Vpp; skimmer 2, 23.0 V; lens 1 transfer, 52.0 μs, and mass range m/z 100–1000. A calibration solution of 10 mM sodium formate in 50% ACN was injected at the beginning of each run. Data were analyzed using Bruker Data Analysis version 3.2 software (Bruker, Billerica, MA, USA). Calibration curves were prepared using 0.1–10 μM standards.

Caco-2 cell monolayers [3] = experiment: as above; format: in vitro ADME; settings: LC–TOF/MS, n = 4–6; for Effect of Gly-Sar (PEPT1 substrate) on Papp: Caco-2, 1 mM peptide with 10 mM Gly-Sar, 60 min; for Papp in monolayers incubated with cytochalasin D vs untreated membranes: Caco-2, 1 mM peptide, pre-incubation with cytochalasin D 0.5 μg/mL for 30 min, transport 60 min
Protocol: as §1, §2, §3

Caco-2 cells = experiment: Peptidase degradation and dephosphorylation during Caco-2 transport (fragment screening by LC-TOF/MS); format: in vitro ADME; settings: for Resistance to peptidase degradation in Caco-2 cells: 1 mM peptide, 60 min, fragments screened by m/z, no other peptide fragments found (data not shown)
Protocol: as §1, with “After equilibration for 15 min at 37 °C, the apical buffer was replaced with fresh HBSS (pH 6.0) containing 1 mM peptide and 0.5% DMSO. Portions (60 μL) of solutions were drawn from the apical or basolateral sides at 15, 30, 45, and 60 min to determine amounts of transported peptides.” left out
Oligopeptides were separated at 40 °C using a linear gradient of 0.1% formic acid (FA) in MS grade water (solvent A) and 0.1% FA in acetonitrile (ACN) (solvent B) for 20 min at a flow rate of 0.2 mL/min, and an Agilent 1200 series HPLC system (Agilent Technologies Inc., Santa Clara, CA, USA) equipped with a Cosmosil 5C18-MS-II column (Φ 2.0 mm × 150 mm, Nacalai Tesque Inc., Kyoto, Japan). […] Data were analyzed using Bruker Data Analysis version 3.2 software (Bruker, Billerica, MA, USA). […]

[4] = Plasma pharmacokinetics after a single oral dose in rats; format: in vivo, Sprague-Dawley rats
CBLB = system: CBLB; parameters: method as in 2 sources, ref 9 = [9]; PMID 26874193; doi:10.1016/j.abb.2016.02.014; 9. Ohno A Structural analysis of the TKB domain of ubiquitin ligase Cbl-b complexed with its small inhibitory peptide, Cblin Arch. Biochem. Biophys. 2016 594 1 7 10.1016/j.abb.2016.02.014 26874193 ||| ref 19 = [19]; PMID 23762056; doi:10.1155/2013/907565; 19. Abe T Soy glycinin contains a functional inhibitory sequence against muscle-atrophy-associated ubiquitin ligase Cbl-b Int. J. Endocrinol. 2013 2013 907565 907565 23762056 10.1155/2013/907565 PMC36; settings: cited from earlier work
Excerpt: The amino acid sequence of Cblin pentapeptide was designed to inhibit interaction between CBLB and IRS1 proteins based on the ability of CBLB to recognize and bind to phosphorylated tyrosine. […] We previously elucidated the crystal structure of the TKB domain of CBLB complexed with C ...

[5] = LC-TOF/MS detection of CbR-derived peptides in serum and skeletal muscle of mice fed CbR; format: in vivo, Jcl:ICR mice; settings: serum of mice fed CbR diet for 14 days
Protocol: as §3
31 Supplementary Figure 2. Analysis of serum collected from mice fed with Non-Tg or CbR using
33 Mice were handled as described in Methods. Briefly, 6-week-old male Jcl:ICR mice (Japan SLC
34 Inc., Shizuoka, Japan) were housed with access to a standard diet and water ad libitum. […]
42 specific for CbR group. ND, not detected. […]
60 analyzed by LC-TOF/MS under conditions described in Methods. […]
61 those of possible metabolites. […] ND, not detected.

[6] = rat, single p.o. 50 mg/kg BW, n = 1
[7] = rat, single p.o. 200 mg/kg BW, n = 1

Compound: Gly-Sar-Sar-Sar-Sar [pentapeptide transport model with methylated peptide bonds]
Papp (Caco-2 cell monolayers [1]): 8.6 ± 0.6^a,* ×10^−7 cm/s
Papp, as given in text (Caco-2 cell monolayers [1]): 8.6 ×10^−7 cm/s

Papp A→B at 60 min, 1 mM [2]: 0.7 ± 0.08 ×10⁻⁶ cm/s
Effect of Gly-Sar (PEPT1 substrate) on Papp (Caco-2 cell monolayers [3]): not affected
Papp in monolayers incubated with cytochalasin D vs untreated membranes (Caco-2 cell monolayers [3]): significantly higher
Resistance to peptidase degradation in Caco-2 cells (Caco-2 cells): resistant to peptidase degradation
half-life ([4]; male, Sprague-Dawley, plasma, po, rat, p.o. 100 mg/kg BW, elimination half-life, n = 5): 28 min
tmax ([4]; male, Sprague-Dawley, plasma, po, rat, p.o. 100 mg/kg BW, n = 5, read-out: tmax (converted)): 15 min
Metabolites found in rat plasma ([4]; p.o. 100 mg/kg BW, plasma 30 min after administration, screened by m/z): Gly-Tyr-Met-Pro and Met-Pro
Cmax ([4]; rat, p.o. 100 mg/kg BW, fasted 16 h, LC–TOF/MS with isotope-labelled internal standard, means ± SEM (n = 5)): 2.78 ± 0.17 pmol/mL plasma
AUC0–60 min [4, 6]: 14.61 pmol ∙ min/mL plasma
Cmax [4, 6]: 0.79 pmol/mL plasma
t1/2 [4, 6]: 8.99 min
tmax [4, 6]: 10 min
AUC0–60 min [4, 7]: 648.91 pmol ∙ min/mL plasma
Cmax [4, 7]: 27.25 pmol/mL plasma
t1/2 [4, 7]: 5.58 min
tmax [4, 7]: 30 min
Compound: CSCC[C@H](NC(=O)[C@H](Cc1ccc(O)cc1)NC(=O)CNC(=O)[C@@H](N)CC(=O)O)C(=O)N1CCC[C@H]1C(=O)O [Asp-Gly-Tyr-Met-Pro] (H-DGYMP-OH)

Compound: Gly-[pY]-Met
Effect on CBLB-mediated ubiquitination of IRS1 (CBLB; in vitro): suppressive effect

Compound: CSCC[C@H](NC(=O)[C@H](Cc1ccc(OP(=O)(O)O)cc1)NC(=O)CNC(=O)[C@@H](N)CC(=O)O)C(=O)N1CCC[C@H]1C(=O)O [Asp-Gly-pTyr-Met-Pro] (H-DG[pY]MP-OH)
Papp A→B at 60 min, 1 mM [2]: 0.35 ± 0.12 ×10⁻⁶ cm/s
Effect of Gly-Sar (PEPT1 substrate) on Papp (Caco-2 cell monolayers [3]): not affected
Papp in monolayers incubated with cytochalasin D vs untreated membranes (Caco-2 cell monolayers [3]): significantly higher
Resistance to peptidase degradation in Caco-2 cells (Caco-2 cells): resistant to peptidase degradation
Dephosphorylation during Caco-2 transport (Caco-2 cells; basolateral solution after 60 min, Asp-Gly-Tyr-Met-Pro found at an estimated concentration similar to the intact peptide): dephosphorylated

Uptake of intact heptapeptide into serum [5]: undetectable
Compound: CSCC[C@H](NC(=O)[C@H](Cc1ccc(O)cc1)NC(=O)CNC(=O)[C@H](CC(=O)O)NC(=O)[C@@H](N)CCC(N)=O)C(=O)N1CCC[C@H]1C(=O)N[C@@H](Cc1c[nH]c2ccccc12)C(=O)O [Gln-Asp-Gly-Tyr-Met-Pro-Trp] (H-QDGYMPW-OH)

Compound: Asp-Ile-Tyr-Asn-Pro [modified Cblin peptide (Cblin-like peptide from soy glycinin) with non-phosphorylated tyrosine]
Effect on CBLB-mediated IRS1 ubiquitination (CBLB): suppresses

Reference: publication PMC8429733, “Oral intake of rice overexpressing ubiquitin ligase inhibitory pentapeptide prevents atrophy in denervated skeletal muscle” (NPJ Science of Food, 2021)
